The text below walks through data of article PMC9440028, “Neurotensin analogs by fluoroglycosylation at N^ω-carbamoylated arginines for PET imaging of NTS1-positive tumors” (Scientific Reports, 2022).

Read-outs that look alike come from different tables or passages of the source.

For one data set, the target named is T1, hNTS1R (Homo sapiens, UniProt P30989).
T1 construct: at hNTS1R expressing intact human HT-29 colon carcinoma cells; endogenous in cells; host or cells: HT-29 human colon carcinoma cells (intact)
T1 sequence (P30989 whole entry): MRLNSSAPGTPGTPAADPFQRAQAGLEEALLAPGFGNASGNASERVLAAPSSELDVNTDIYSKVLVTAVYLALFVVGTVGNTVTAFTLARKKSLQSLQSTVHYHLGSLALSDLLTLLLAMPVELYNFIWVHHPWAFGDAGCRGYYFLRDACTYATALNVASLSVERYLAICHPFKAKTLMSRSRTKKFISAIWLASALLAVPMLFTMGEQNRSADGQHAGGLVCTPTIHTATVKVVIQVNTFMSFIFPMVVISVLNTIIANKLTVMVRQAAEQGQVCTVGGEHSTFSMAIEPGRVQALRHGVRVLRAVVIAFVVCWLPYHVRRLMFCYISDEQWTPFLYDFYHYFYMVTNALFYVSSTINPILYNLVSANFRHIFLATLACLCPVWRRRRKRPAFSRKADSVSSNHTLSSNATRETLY
Put plainly: Radioligand competition binding with [^3H]UR-MK300 at intact HT-29 cells. The conditions noted are these: [^3H]UR-MK300 (Kd = […], c = 1 nM), 23 °C. The protocol:
Unspecific binding was subtracted from total binding to obtain specific binding. Data analysis was performed by plotting % specifically bound radioligand (100% = specifically bound radioligand in the absence of competitor) over log(concentration of competitor) followed by a four-parameter logistic fit (SigmaPlot 12.5, Systat Software). […] The Ki values from individual experiments were transformed to pKi values, followed by the calculation of mean pKi values ± SEM.

The nature of data set [1]: In vitro stability in human plasma/PBS (1:2 v/v) at 37 °C. The format is in vitro ADME. The conditions noted are these: human blood plasma/PBS (1:2 v/v), read-out: % intact peptide in human plasma after the given incubation time; for remaining at 1 h, 100 µM: pH 7.4, 1 h; for remaining at 6 h, 100 µM: pH 7.4, 6 h; for remaining at 24 h, 100 µM: pH 7.4, 24 h; for remaining at 48 h, 100 µM: pH 7.4, 48 h; for remaining at 10 min, 100 µM: pH 7.4, 10 min; for remaining at 25 min, 100 µM: pH 7.4, 25 min; for remaining at 2 h, 100 µM: pH 7.4, 2 h. How it is done:
(§1) The metabolic stabilities of 11–14, 16 and 18–21 (cf. Table 2) were investigated in human blood plasma/PBS (136.9 mM NaCl, 2.68 mM KCl, 5.62 mM Na2HPO4, 1.09 mM NaH2PO4 and 1.47 mM KH2PO4) pH 7.4 (1:2, v/v) according to a described procedure[13] with the following modifications: 5 mM stock solutions in EtOH/0.04% aq TFA (30:70 v/v) (11–13), MeCN/0.025% aq TFA (30:70 v/v) (14), MeCN/0.04% aq TFA (30:70 v/v) (16, 19 and 21) or EtOH/H2O (40:60 v/v) (18, 20) were used for the addition of the peptides to plasma/PBS (1:2 v/v). As the RP-HPLC purity of 1-Methyl-D-Trp (internal standard, IS) was < 95% (data not shown), the compound was purified by preparative HPLC to give a purity of > 99%. The concentration of the peptides in plasma/PBS (1:2 v/v) was 80 and 4 µM (recovery determination) or 100 µM (stability tests). The obtained recoveries and the recovery ratios (peptide/internal standard) are summarized in Supplementary Table S1. Data analysis was based on UV detection at 220 nm. Additionally, the stability of compound 21 was investigated in mouse plasma/PBS (1:2 v/v) using the same procedure as described above for human plasma. Mouse plasma was obtained by the collection of blood from anaesthetized mice via cardiac puncture using a syringe that was rinsed with sodium heparin (25,000 I.E., Ratiopharm, Ulm, Germany). The heparinized blood was transferred into a 2-mL reaction vessel, followed by centrifugation (1200 g, 4 °C, 10 min). The supernatants were pooled, centrifuged again (1200 g, 4 °C, 10 min), the plasma was aliquoted and stored at − 80 °C. The concentration of 21 in plasma/PBS (1:2 v/v) was 80 and 4 μM (recovery determination) or 100 μM (stability tests). The obtained recoveries and the recovery ratios (21/IS) are summarized in Supplementary Table S2. Data analysis was based on UV detection at 220 nm.

Data set [2] can be described thus: In vitro stability in mouse plasma/PBS (1:2 v/v) at 37 °C. The format is in vitro ADME. The conditions noted are these: read-out: % intact peptide in mouse plasma after the given incubation time. How it is done: as §1
Setting [3] is: read-out: pKi ± SEM (converted).

`CN[C@@H](CCCNC(=N)NC(=O)NCCCCNC(=O)CCc1cn([C@@H]2O[C@H](CF)[C@@H](O)[C@H](O)[C@H]2O)nn1)C(=O)N[C@@H](CCCNC(=N)N)C(=O)N1CCC[C@H]1C(=O)N[C@@H](Cc1ccc(O)cc1)C(=O)N[C@H](C(=O)N[C@@H](CC(C)C)C(=O)O)C(C)(C)C` [Compound 21, N^α-methyl-(N^ω-{N-[4-(3-{1-[6-deoxy-6-fluoro-β-D-glucopyranosyl]-1H-1,2,3-triazol-4-yl}propanoyl)aminobutyl]aminocarbonyl})Arg-Arg-Pro-Tyr-2-tert-butyl-Gly-Leu-OH tris(hydrotrifluoroacetate)]: the Ki entry was “one-digit nanomolar range” on hNTS1R (mean); 4.3 nM on hNTS1R (mean, read-out: Ki (converted)); 4.07 nM at hNTS1R (setting [3]). For the same compound, the remaining at 1 h, 100 µM in data set [1] is greater than 99%; in data set [2] (pH 7.4, 1 h) it was greater than 99%. Besides, the remaining at 6 h, 100 µM was greater than 99% in data set [1] and greater than 99% in data set [2] (pH 7.4, 6 h). Further, the remaining at 24 h, 100 µM is greater than 99% in data set [1] and greater than 99% in data set [2] (pH 7.4, 24 h). Besides, the remaining at 48 h, 100 µM was 99 ± 1% in data set [1] and greater than 99% in data set [2] (pH 7.4, 48 h). The remaining at 10 min, 100 µM in data set [2] (pH 7.4, 10 min) is greater than 99%. The remaining at 2 h, 100 µM in data set [2] (pH 7.4, 2 h) was greater than 99%.

Regarding `CC(C)C[C@H](NC(=O)[C@@H](NC(=O)[C@H](Cc1ccc(O)cc1)NC(=O)[C@@H]1CCCN1C(=O)[C@H](CCCNC(=N)NC(=O)NCCCCc1cn([C@@H]2O[C@H](CF)[C@@H](O)[C@H](O)[C@H]2O)nn1)NC(=O)[C@@H](N)CCCNC(=N)N)C(C)(C)C)C(=O)O` [Compound 12, H-Arg-{N^ω-[N-(4-{1-[6-deoxy-6-fluoro-β-D-glucopyranosyl]-1H-1,2,3-triazol-4-yl}butyl)aminocarbonyl]}Arg-Pro-Tyr-2-tert-butyl-Gly-Leu-OH tris(hydrotrifluoroacetate)], the Ki at hNTS1R (mean, read-out: Ki (converted)) is 5.8 nM. Further, on hNTS1R (setting [3]), the Ki was 5.5 nM. For the same compound, in data set [1], the remaining at 10 min, 100 µM was found to be 86 ± 1%; the remaining at 25 min, 100 µM was 28 ± 1%; the remaining at 1 h, 100 µM is less than 1%; the remaining at 2 h, 100 µM was less than 1%.

`CC(C)C[C@H](NC(=O)[C@@H](NC(=O)[C@H](Cc1ccc(O)cc1)NC(=O)[C@@H]1CCCN1C(=O)[C@H](CCCNC(=N)N)NC(=O)[C@@H](N)CCCNC(=N)NC(=O)NCCCCN)C(C)(C)C)C(=O)O` [Compound 14, N^ω-[(4-aminobutyl)aminocarbonyl]Arg-Arg-Pro-Tyr-2-tert-butyl-Gly-Leu-OH tetrakis(hydrotrifluoroacetate)]: the Ki on hNTS1R (mean, read-out: Ki (converted)) is 2.2 nM. Also, the Ki on hNTS1R (setting [3]) was 2.04 nM. In addition, in data set [1], the remaining at 10 min, 100 µM is 50 ± 2%; the remaining at 1 h, 100 µM was less than 1%; the remaining at 6 h, 100 µM was less than 1%; the remaining at 24 h, 100 µM is less than 1%.

`CC(C)C[C@H](NC(=O)[C@@H](NC(=O)[C@H](Cc1ccc(O)cc1)NC(=O)[C@@H]1CCCN1C(=O)[C@H](CCCNC(=N)N)NC(=O)[C@@H](N)CCCNC(=N)NC(=O)NCCCCc1cn([C@@H]2O[C@H](CF)[C@@H](O)[C@H](O)[C@H]2O)nn1)C(C)(C)C)C(=O)O` [Compound 11, H-{N^ω-[N-(4-{1-[6-deoxy-6-fluoro-β-D-glucopyranosyl]-1H-1,2,3-triazol-4-yl}butyl)aminocarbonyl]}Arg-Arg-Pro-Tyr-2-tert-butyl-Gly-Leu-OH tris(hydrotrifluoroacetate)]: at hNTS1R (mean, read-out: Ki (converted)), the Ki was 4.6 nM. Further, in data set [1], the remaining at 10 min, 100 µM was 72 ± 1%; the remaining at 25 min, 100 µM was 24 ± 1%; the remaining at 1 h, 100 µM worked out at 1.1 ± 0.1%; the remaining at 2 h, 100 µM was less than 1%.

In the case of `C#CCCC(=O)NCCCCNC(=O)NC(=N)NCCC[C@H](N)C(=O)N[C@@H](CCCNC(=N)N)C(=O)N1CCC[C@H]1C(=O)N[C@@H](Cc1ccc(O)cc1)C(=O)N[C@H](C(=O)N[C@@H](CC(C)C)C(=O)O)C(C)(C)C` [Compound 18, H-{N^ω-[N-(4-pent-4-ynoylaminobutyl)aminocarbonyl]}Arg-Arg-Pro-Tyr-2-tert-butyl-Gly-Leu-OH tris(hydrotrifluoroacetate)], the Ki on hNTS1R (mean, read-out: Ki (converted)) was 4.4 nM. At hNTS1R (setting [3]), the Ki is 4.27 nM. In data set [1], the remaining at 10 min, 100 µM was 59 ± 1%; the remaining at 1 h, 100 µM was less than 1%; the remaining at 6 h, 100 µM was less than 1%; the remaining at 24 h, 100 µM is less than 1%.

Turning to `C#CCCC(=O)NCCCCNC(=O)NC(=N)NCCC[C@H](NC)C(=O)N[C@@H](CCCNC(=N)N)C(=O)N1CCC[C@H]1C(=O)N[C@@H](Cc1ccc(O)cc1)C(=O)N[C@H](C(=O)N[C@@H](CC(C)C)C(=O)O)C(C)(C)C` [Compound 19, N^α-methyl-{N^ω-[N-(4-pent-4-ynoylaminobutyl)aminocarbonyl]}Arg-Arg-Pro-Tyr-2-tert-butyl-Gly-Leu-OH tris(hydrotrifluoroacetate)], at hNTS1R (mean, read-out: Ki (converted)), the Ki was 7.7 nM. Moreover, in data set [1], the remaining at 1 h, 100 µM is greater than 99%; the remaining at 6 h, 100 µM was greater than 99%; the remaining at 24 h, 100 µM is greater than 99%; the remaining at 48 h, 100 µM worked out at 99 ± 1%.
